The values that follow come from patent US20250034216A1, “STEREOSELECTIVE COVALENT LIGANDS FOR ONCOGENIC AND IMMUNOLOGICAL PROTEINS” (The Scripps Research Institute, priority 2021, published 2025).

The target in one assay is T1, PSME1 22 (Homo sapiens, UniProt Q06323).
T1 construct: stereoselectively engaged C22 of endogenous PSME1 in 22Rv1 cells; endogenous in cells; host or cells: 22Rv1
The assay can be described thus: IA-DTB cysteine engagement, GluC + trypsin digest. The conditions noted are these: 22Rv1 cells. It counts as binding. As to the method:
Sample preparation: Cells (adherent: 15 cm dishes, suspension: 2 million cells/mL) were treated with electrophilic probes in situ for indicated times and concentrations, washed with ice-cold PBS, and flash frozen in liquid nitrogen. Cell pellets were lysed by sonication (8 pulses, 40% power) in 500 μL ice-cold PBS supplemented with cOmplete protease inhibitors (1 tablet/10 mL of PBS). Whole cell lysates protein content was measured using a standard DC protein assay (Bio-Rad) and 500 μL (2 mg/mL protein content) were treated with 5 μL of 10 mM 1A-DTB (in DMSO) for 1 h at ambient temperature with occasional vortexing. Samples were methanol-chloroform precipitated with the addition of 500 μL ice-cold MeOH and 200 μL CHCl3, vortexed, and centrifuged (10 min, 10,000 g). Without disrupting the protein disk, both top and bottom layers were aspirated and the protein disk was washed with 1 mL ice-cold MeOH and centrifuged (10 min, 10,000 g). The pellets were allowed to air dry, and then re-suspended in 90 μL buffer (9 M urea, 10 mM DTT, 50 mM TEAB pH 8.5). Samples were reduced by heating at 65 C for 20 minutes and water bath sonicated as needed to resuspend the protein pellets, followed by alkylation via addition of 10 μL (500 mM) iodoacetamide and incubated at 37 C for 30 min with shaking. Samples were briefly centrifuged, and probe sonicated once more to ensure complete resuspension, and then diluted with 300 μL buffer (50 mM TEAB pH 8.5) to reach final concentration of 2 M urea. […] Digested samples were then diluted with 300 μL wash buffer (50 mM TEAB pH 8.5, 150 mM NaCl, 0.2% NP-40) containing streptavidin-agarose beads (50 μL of 50% slurry in wash buffer) and were rotated at room temperature for 2 hours. Enriched samples were pelleted by centrifugation (2000 g, 2 min) and transferred to BioSpin columns and washed (3×1 mL wash buffer, 3×1 mL PBS, 3×1 mL water). Enriched peptides were eluted by 300 μL 50% acetonitrile with 0.1% formic acid and eluate was evaporated to dryness via speedvac. IA-DTB labeled and enriched peptides were resuspended in 100 μL EPPS buffer (200 mM, pH 8.0) with 30% acetonitrile, vortexed, and water bath sonicated. Samples were TMT labeled with 3 μL of corresponding TMT tag (5 mg tag resuspended in 256 μL acetonitrile), vortexed, and incubated at room temperature for 1 hour. […]
Data processing: Cysteine engagement ratios (probe vs DMSO) were calculated for each peptide-spectra match by dividing each TMT reporter ion intensity by the average intensity for the channels corresponding to DMSO treatment. […]
Samples were analyzed by liquid chromatography tandem mass-spectrometry using an Orbitrap Fusion mass spectrometer (Thermo Scientific) coupled to an UltiMate 3000 Series Rapid Separation LC system and autosampler (Thermo Scientific Dionex). […]

The target in the next assay is T2, DDX49_258 (Homo sapiens, UniProt Q9Y6V7).
T2 construct: endogenous in cells; host or cells: 22Rv1
The assay can be described thus: IA-DTB cysteine engagement. It counts as binding. Particulars: 22Rv1 cells, 5 μM probe, 1 h (FIG. 5B), relative to DMSO. In outline:
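Competitive chemoproteomics: residual cysteine reactivity toward IA-DTB in lysates from probe-treated cells was quantified by TMT reporter ions relative to DMSO-treated controls. Replicates sharing cell line, probe, concentration and duration were averaged.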

T1 sequence (Q06323 whole entry): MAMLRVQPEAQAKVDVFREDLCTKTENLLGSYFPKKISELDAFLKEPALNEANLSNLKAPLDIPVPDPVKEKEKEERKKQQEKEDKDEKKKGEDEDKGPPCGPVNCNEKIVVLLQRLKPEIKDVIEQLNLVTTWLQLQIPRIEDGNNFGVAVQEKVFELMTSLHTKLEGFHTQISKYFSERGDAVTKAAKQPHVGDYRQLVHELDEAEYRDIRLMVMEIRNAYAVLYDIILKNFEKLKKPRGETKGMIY
T2 sequence (Q9Y6V7 whole entry): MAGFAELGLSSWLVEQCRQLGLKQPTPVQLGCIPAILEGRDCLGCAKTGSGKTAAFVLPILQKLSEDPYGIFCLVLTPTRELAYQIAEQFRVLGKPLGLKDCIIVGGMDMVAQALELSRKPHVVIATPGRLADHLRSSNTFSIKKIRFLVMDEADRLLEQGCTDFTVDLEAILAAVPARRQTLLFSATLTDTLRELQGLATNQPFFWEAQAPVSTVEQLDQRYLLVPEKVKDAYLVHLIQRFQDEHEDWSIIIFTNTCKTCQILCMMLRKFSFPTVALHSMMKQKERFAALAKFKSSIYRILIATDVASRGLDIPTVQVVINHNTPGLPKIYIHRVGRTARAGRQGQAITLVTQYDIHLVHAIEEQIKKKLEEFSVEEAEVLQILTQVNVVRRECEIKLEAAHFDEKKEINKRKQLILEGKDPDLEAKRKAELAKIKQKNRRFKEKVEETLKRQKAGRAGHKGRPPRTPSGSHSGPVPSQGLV

`C=CC(=O)N1[C@H](c2ccc3c(c2)OCO3)c2[nH]c3ccccc3c2C[C@H]1C(=O)N1CCOCC1` [WX-02-23, 1-((1R,3S)-1-(benzo[d][1,3]dioxol-S-yl)-3-(morpholine-4-carbonyl)-1,3,4,9-tetrahydro-2H-pyrido [3,4-b]indol-2-yl)prop-2-en-1-one]: the “percent engagement relative to DMSO, PSME1 22” value on PSME1 22 (5 uM) is reported as −20.9%; on PSME1 22 (20 uM), −29.44%.
For `CC#CC(=O)N1C[C@H](c2ccc(Br)cc2)[C@@H]1C(=O)Nc1cccc2cccnc12` [MY-45B, (2R,3S)-3-(4-bromophenyl)-1-(but-2-ynoyl)-N-(quinolin-8-yl)azetidine-2-carboxamide], the “% engagement DDX49_258” value at DDX49_258 stood at 82.25%.
On to `C=CC(=O)N1C[C@H](c2ccc(Br)cc2)[C@@H]1C(=O)Nc1cccc2cccnc12` [MY-1B, (2R,3S)-1-acryloyl-3-(4-bromophenyl)-N-(quinolin-8-yl)azetidine-2-carboxamide], for which, on DDX49_258, the “% engagement DDX49_258” value is 5.50%.
Turning to `C=CC(=O)N1[C@@H](c2ccc3c(c2)OCO3)c2[nH]c3ccccc3c2C[C@@H]1C(=O)N1CCOCC1` [WX-02-43, 1-((1S,3R)-1-(benzo[d][1,3]dioxol-5-yl)-3-(morpholine-4-carbonyl)-1,3,4,9-tetrahydro-2H-pyrido [3,4-b]indol-2-yl)prop-2-en-1-one], the figures for the “percent engagement relative to DMSO, PSME1 22” value at PSME1 22 (5 uM) and at PSME1 22 (20 uM) were −24.33% and −26.32%, respectively.
